Series [1] concerns isolated rat liver mitochondria (mitochondrial β-oxidation). The series is described as follows: Mitochondrial biotransformation of alkanoic-acid-based prodrugs. As to conditions: for biotransformation / substrate quality for β-oxidation (in words): isolated rat liver mitochondria; for effect of added carnitine on biotransformation: presence vs. absence of added carnitine. The source says:
Mitochondrial Biotransformation of Alkanoic-Acid-Based Prodrugs. Rat liver mitochondria were isolated from livers freshly collected from adult male Sprague-Dawley rats (190-225 g) and were used as soon as possible after isolation (Nadtochiy, et al. (2007) J. Mol. Cell. Cardiol. 42:812; Hoffman et al. (2007) Am. J. Physiol. 292:H101). Livers were removed immediately after CO2 euthanasia of the animal, minced, and homogenized with a glass Dounce homogenizer with loose-fitting pestle in liver mitochondria isolation medium that contained 0.25 M sucrose, 2.0 mM HEPES, 1.0 mM EGTA (pH 7.4) at 4° C. The homogenate was centrifuged once at 1000×g for 3 minutes at 4° C. to remove cellular debris. After removal of visible surface fat, the resulting supernatant was centrifuged at 10,000×g for 10 minutes at 4° C. The supernatant was discarded after removing visible surface fat, and the pellet was suspended in ice-cold liver mitochondria isolation medium and centrifuged again at 10,000×g for 10 minutes at 4° C. The mitochondrial pellet thus obtained was suspended in Ca^2+-depletion buffer (1 mM EGTA, 10 mM NaCl, 5 mM succinate, 195 mM mannitol, 25 mM sucrose, 40 mM HEPES, pH 7.2) at room temperature) and incubated with gentle stirring first at room temperature for 10 minutes and then in an ice bath for 5 minutes. Ca^2+-Depletion buffer serves to chelate calcium, activate mitochondrial respiration, and activate the Na^+/Ca^2+ exchanger. The mitochondrial suspension was then centrifuged at 10,000×g for 10 minutes at 4° C., and the pellet was suspended in liver swelling buffer that contained 195 mM mannitol, 25 mM sucrose, 40 mM HEPES (pH 7.2) at 4° C.; liver swelling buffer allows for ionic/osmotic equilibrium through the remainder of the preparation. The suspension was centrifuged at 10,000×g for 10 minutes at 4° C., followed by the removal of light mitochondria and a final centrifugation at 10,000×g for 10 minutes at 4° C. The mitochondrial pellet was suspended in liver swelling buffer at 4° C. Protein concentrations were determined with the Lowry reagent.^56
The quality of mitochondrial preparations was determined by estimating the respiration control ratio (RCR, i.e., the ratio of state 3 vs. state 4 respiration rates) with a Clark-type oxygen electrode (Oxygraph, Hansatech Instruments, Norfolk, England). The incubation mixtures contained 120 mM KCl, 25 mM sucrose, 5 mM MgCl2, 5 mM KH2PO4, 1 mM EGTA, 10 mM HEPES, 10 mM succinate, 2.5 mg/mL fat-free bovine serum albumin, 0.5-0.8 mg/mL mitochondrial protein, 5 μM rotenone, and 100 μM ADP (pH 7.4) and were incubated at 37° C.
Reaction mixtures were prepared in disposable glass culture tubes and contained 20 mM HEPES, 1 mM EGTA, 100 mM KCl, 5 mM KH2PO4, 10 mM MgCl2, 25 mM sucrose, 2 mM L-carnitine (if added), 5 mM ATP, 10 mg/mL bovine serum albumin, 1.4 mM dithiothreitol, 0.13 mM CoA, and 1 mM substrate (pH 7.4). Reaction mixtures were incubated at 37° C. with gentle stirring. Mitochondrial protein (approximately 5 mg/mL) was added, and the samples were incubated for 5 minutes with gentle mixing, which was maintained during the incubation period, to keep the homogenate suspended. After 5 minutes of incubation, the substrates were added. The substrates were dissolved in methanol and added to the reaction mixtures to a final concentration of 1 mM, unless otherwise stated; the final methanol concentration was ≦0.5%. ω-(1-Methyl-1H-imidazol-2-ylthio)alkanoic acids 28a and 28b were dissolved in distilled water and added to the reaction mixtures to a final concentration of 1 mM. Samples were incubated at 37° C. for 30 minutes with constant gentle mixing, and samples were collected for analysis at t=0, 10, 20, and 30 minutes.
Phenolic metabolite formation, i.e., phenol, 2-methylphenol, 2,6-dimethylphenol, 3,5-dimethylphenol, and 2,6-diisopropylphenol, from ω-(phenoxy)alkanoic acids, was quantified by HPLC analysis.

The test system of series [2] is isolated rat cardiomyocytes. As to the kind of experiment: Cytoprotective effects in cardiomyocytes, hypoxia-reoxygenation protocol (Trypan Blue exclusion). In kind it is cell-based. As to conditions: for cytoprotective effect in presence of etomoxir: compound 1 μM + etomoxir 20 μM; for cytoprotection: compounds 1 μM, etomoxir 20 μM. The protocol: Upper panel: Alkanoic acids 28a and 28b (1 μM), methimazole (1 μM), and etomoxir (20 μM) were incubated with cardiomyocytes in a hypoxia-reoxygenation protocol. CON, control; HR, hypoxia-reoxygenation; Eto, etomoxir. Statistical analysis (one-way ANOVA, n=3): CON vs. HR, p<0.05; HR vs. HR+28a, p<0.05; CON vs. HR+28a, NS; HR+28a vs. HR+28a+Eto, p<0.05; HR vs. HR+28b, p<0.05; HR+28b vs. HR+28b+Eto, p<0.05; HR vs. Methimazole, NS. Lower panel: Alkanoic acids 25c and 30a (1 μM), 2,6-dimethylphenol (1 μM), and etomoxir (20 μM) were incubated with cardiomyocytes in a hypoxia-reoxygenation protocol. CON, control; HR, hypoxia-reoxygenation; Eto, etoximir. Statistical analysis (one-way ANOVA, n=3): CON vs. HR, p<0.05; HR vs. HR+25c, p<0.05; CON vs. HR+25c, p<0.05; HR+25c vs. HR+25c+Eto, p<0.05; HR vs. HR+30a, p<0.05; HR+30a vs. HR+30a+Eto, p<0.05; HR vs. 2,6-Dimethylphenol, NS.
Primary ventricular cardiomyocytes were isolated from adult rats and viability was assessed […]. All cells were used within 1 hour of isolation and were 80-85% viable and rod-shaped prior to the experiments. Cell viability was quantified with the Trypan Blue exclusion test. The cells were subjected to a hypoxia-reoxygenation protocol designed to simulate cardiac ischemia-reperfusion injury.

The conditions of series [3]: 5 mg/kg daily for two weeks in feed, cited from earlier work.
The next series deals with IMR90 cells. As to conditions: cited from earlier work.
For series [4] the following is noted: cited from earlier work.

The source of these data is patent US8470861B2, “Mitochondria-targeted antioxidant prodrugs and methods of use” (University of Rochester, priority 2005, dated 2013).

Regarding `Cc1cccc(C)c1OCCC(=O)O` [Compound 25c, 3-(2,6-Dimethylphenoxy)propanoic acid], in series [1], the “biotransformation / substrate quality for β-oxidation (in words)” value (shortened to “biotransformation / substrate quality”) is recorded as “poor substrates”. In series [2], the “cytoprotective effect in presence of etomoxir” value (“cytoprotective effect” for short) is “blocked by etomoxir” and the cytoprotection result is on record as “cytoprotective”.
As for `Cc1cccc(C)c1O/C=C\C(=O)O` [(Z)-3-(2,6-dimethylphenoxy)acrylic acid], the “biotransformation / substrate quality” value in series [1] was “no biotransformation”.
`Cn1ccnc1SCCC(=O)O` [Compound 28a, 3-(1-methyl-1H-imidazol-2-ylthio)propanoic acid]: in series [2], the “cytoprotective effect” value is “blocked by etomoxir” and the cytoprotection result is reported as “significant cytoprotection”.
As to `Cc1cccc(C)c1OCCCCC(=O)O` [Compound 26c, 5-(2,6-Dimethylphenoxy)pentanoic acid], the “biotransformation / substrate quality” value in series [1] is listed as “poor substrates”.
The same measure, in the same setting: under `CC(C)c1cccc(C(C)C)c1O/C=C/C(=O)O` [Compound 30b, (E)-3-(2,6-diisopropylphenoxy)acrylic acid] stands “No quantifiable biotransformation”.
As for `Cc1cccc(C)c1O/C=C/C(=O)O` [Compound 30a, (E)-3-(2,6-dimethylphenoxy)acrylic acid], the “rate of biotransformation relative to saturated analog 25c” value in series [1] (30a vs. 25c) is reported as “approximately 20 fold”. Further, in series [2], the “cytoprotective effect” value is given as “blocked by etomoxir” and the cytoprotection entry is “cytoprotective”.
In the case of `CCOC(=O)[C@@]1(CCCCCCOc2ccc(Cl)cc2)CO1` [etomoxir, reference compound], the cytoprotection entry in series [2] is “no cytoprotective effect”.
On to `Cn1ccnc1SCCCCC(=O)O` [Compound 28b, 5-(1-Methyl-1H-imidazol-2-ylthio)pentanoic acid], for which, in series [2], the “cytoprotective effect” value was “blocked by etomoxir” and the cytoprotection result is “significant cytoprotection”.
Consider `CC(C)(C)NO` [N-tert-butylhydroxylamine], for which, in series [3] (8 Gy whole-body irradiation), the radiation sensitivity entry is “decreased the radiation sensitivity”. Moreover, in series [3], the compound-associated toxicity result is recorded as “no compound-associated toxicity was observed”. In the series on IMR90 cells, the “concentration that delays senescence (as low as)” value is 10 µM.
Take `ONCc1ccccc1` [N-benzylhydroxylamine]: in the series on IMR90 cells, the “concentration that delays senescence (as low as)” value was 10 µM.
Take `CNO` [N-methylhydroxylamine]: the “concentration that delays senescence (as low as)” value with IMR90 cells was 10 µM.
For `Cn1ccnc1S` [methimazole, 2-Mercapto-1-methylimidazole, reference compound], the cytoprotection result in series [2] was “failed to provide cytoprotection”.
Regarding `Cc1cccc(C)c1OCSCCC(=O)O` [Compound 29, 3-[(2,6-Dimethylphenoxy)methylthio]propanoic acid], in series [1], the “biotransformation / substrate quality” value is given as “much better substrate” and the “effect of added carnitine on biotransformation” value was “no significant difference”.
For the molecule `Cc1c(S)ncn1C` [1,5-dimethyl-4-mercaptoimidazole], the “pKa of the thiol group” value in series [4] is 2.3.
On to `O=C(O)CCOc1ccccc1` [Compound 25a, 3-(Phenoxy)propanoic acid], for which the “effect of added carnitine on biotransformation” value in series [1] is reported as “no significant difference”.
